Assay [1] deals with HPV16 transformed syngeneic cells (TC-1). The assay can be described thus: Therapy of HPV16 E6/E7 transformed tumor cells (TC-1) by peptide plus in vivo CD40 triggering. On the set-up: species or system C57BL/6 mice. The following applies: treated 6 days after s.c. injection of 25.000 TC-1 cells; 100 μg peptide i.p. in IFA; n=10. How it is done: Mice were injected s.c with 25.000 HPV16 transformed syngeneic cells (TC-1). C57BL/6 mice were left untreated (-◯-) or after 6 days received 100 μg HPV16 E7-peptide i.p. in IFA (-□-), 100 μg HPV16 E7-peptide i.p. in IFA in combination with the anti-CD40 mAb FGK-45 (-▪-) or a control peptide i.p. in IFA in combination with the anti-CD40 mAb FGK-45 (-●-). The percentage of tumor bearing mice is depicted for different treatment groups (n=10) in (a). The differences between the group treated with the HPV16-peptide plus the anti-CD40 mAb and the other three groups were statistically significant (p<0.01) (Log-Rank test). In (b) the percentage of surviving animals is shown (E7-peptide-treated group vs E7-peptide plus anti-CD40-treated group: p=0.002, Log-Rank test).
It was examined whether CD40-triggering in vivo is beneficial to the outcome of vaccination with an HPV16 E7-derived peptide.

A further assay deals with E1A-specific CTL clone. Briefly: Spleen cells of peptide-injected mice as stimulator cells for an E1A-specific CTL clone ([3H]-thymidine incorporation). It is filed as cell-based, C57BL/6 mice. The following applies: splenocytes isolated 16 h after s.c. injection of 100 μg peptide in IFA. How it is done:
Spleen cells derived from untreated C57BL/6 mice (−), or from mice injected s.c. 16 h earlier with 100 μg of E1A- or HPV16 E7-peptide in IFA were used as stimulator cells for an E1A-specific CTL clone. [^3H]-thymidine incorporation (cpm) +/−S. E. M. is shown for different effector to stimulator concentrations,. without subtraction of background counts. Results are representative of 5 independent experiments.
Spleen cells from these mice were isolated 16h later and used as stimulator cells for an E1A-specific CTL clone in vitro.
In general terms: Incorporation of labelled thymidine or its analogues reports DNA synthesis.

Assay [2] has as its system HPV16 transformed syngeneic cells (TC-1). The conditions noted are these: preventive vaccination with peptide, prior knowledge; cited from earlier work.
The subject of a further assay is E1A-specific CTL. Briefly: E1A-peptide in IFA with in vivo CD40-triggering: E1A-specific CTL cytotoxicity and Db/E1A tetramer staining. The conditions noted are these: spleen of vaccinated mice. On the set-up: species or system C57BL/6 mice. The text has this:
Since CD4^+ T cell-mediated helper activity has been implicated in the prevention of peripheral CTL tolerance induction, the inventors addressed the question whether CD40-triggering in vivo is sufficient to prevent peripheral E1A-specific CTL tolerization.

Another assay deals with T1, CD40 (Mus musculus, UniProt P27512).
T1 construct: endogenous in cells
T1 sequence (P27512 20-289): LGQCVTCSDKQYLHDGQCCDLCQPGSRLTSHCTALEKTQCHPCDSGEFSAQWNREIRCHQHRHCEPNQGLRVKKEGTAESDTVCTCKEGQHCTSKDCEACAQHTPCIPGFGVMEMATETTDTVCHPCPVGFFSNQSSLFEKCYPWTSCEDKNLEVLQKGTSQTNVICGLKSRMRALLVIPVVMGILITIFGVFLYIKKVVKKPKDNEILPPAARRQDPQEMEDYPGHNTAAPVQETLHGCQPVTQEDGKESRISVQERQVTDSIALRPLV
The assay can be described thus: Cross-priming of E1B-specific CTLs in mice immunized with Ad5E1-BALB/c MECs, CD40 activation replacing CD4+ T help. Format: in vivo. The conditions noted are these: CD4-depleted mice after immunization; LPS 50 μg intravenous; IL-2 1×10^5 units in IFA subcutaneous (not shown).
From the text: (§1) Each line represents one mouse.
as §1

With “RAHYNIVTF (Human Papilloma Virus Type 16 E7 derived peptide) [E7-peptide]”, the “Tumor growth / outgrowth” value in assay [1] is recorded as “able to slow down tumor growth, but eventually most animals succumb to the tumor”. In addition, in the assay on E1A-specific CTL clone, the “Proliferation of E1A-specific CTL clone on splenocytes” value was “failed to do so”. Besides, the “Immunity against a challenge with HPV16-transformed tumor cells” value in assay [2] is listed as “induces protective CTL-mediated immunity”.
“SGPSNTPPEI (Human Adenovirus E1A derived peptide) [E1A-peptide]”: the “Proliferation of E1A-specific CTL clone on splenocytes” value in the assay on E1A-specific CTL clone is “induced specific proliferation”. The “Percentage of CD8+ cells that stained with the Db/E1A tetramers” value with E1A-specific CTL is on record as “approximately 3%”.
Regarding bacterial lipopolysaccharide [LPS], at CD40, the “E1B-specific CTL activity / CTL priming” value is recorded as “neither LPS or IL-2 treatment resulted in detectable CTL priming”.
